Results published in patent US20100130738A1 (priority 2007, published 2010).
pIC50: −log10 of the molar value.

Columns and labels:
[1] = biological target: T1, PDE3A catalytic domain (PDE3Acat) (Homo sapiens, UniProt Q14432); assay: Phosphodiesterase inhibitory activity, recombinant PDE3Acat, [3H]cAMP; type: biochemical; details: 30° C. 20 minutes, read-out: IC50 (μmol/L) PDE3
T1 construct: isolate the cDNA of a PDE3A catalytic domain; made in house; host or cells: Sf9 insect cells (baculovirus, Bac-to-Bac / Gateway)
T1 sequence (Q14432 674-1093 limits assumed): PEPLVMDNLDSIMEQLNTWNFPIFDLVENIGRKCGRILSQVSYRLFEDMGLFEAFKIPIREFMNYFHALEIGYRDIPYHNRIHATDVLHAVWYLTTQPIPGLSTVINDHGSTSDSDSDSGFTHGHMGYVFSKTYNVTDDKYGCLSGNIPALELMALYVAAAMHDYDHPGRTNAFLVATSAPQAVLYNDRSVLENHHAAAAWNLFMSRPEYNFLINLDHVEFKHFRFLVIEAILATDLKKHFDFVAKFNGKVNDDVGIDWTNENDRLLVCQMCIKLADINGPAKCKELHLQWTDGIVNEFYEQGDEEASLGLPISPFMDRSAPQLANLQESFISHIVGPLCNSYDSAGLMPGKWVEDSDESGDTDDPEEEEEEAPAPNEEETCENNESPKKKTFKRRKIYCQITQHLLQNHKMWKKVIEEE

[2] = biological target: T2, PDE4Bcat (Homo sapiens, UniProt Q07343); assay: Phosphodiesterase inhibitory activity, recombinant PDE4Bcat, [3H]cAMP; type: biochemical; details: 30° C. 20 minutes, read-out: IC50 (μmol/L) PDE4
T2 construct: made in house; host or cells: Sf9 insect cells (baculovirus, Bac-to-Bac / Gateway)
T2 sequence (Q07343 330-659 limits assumed): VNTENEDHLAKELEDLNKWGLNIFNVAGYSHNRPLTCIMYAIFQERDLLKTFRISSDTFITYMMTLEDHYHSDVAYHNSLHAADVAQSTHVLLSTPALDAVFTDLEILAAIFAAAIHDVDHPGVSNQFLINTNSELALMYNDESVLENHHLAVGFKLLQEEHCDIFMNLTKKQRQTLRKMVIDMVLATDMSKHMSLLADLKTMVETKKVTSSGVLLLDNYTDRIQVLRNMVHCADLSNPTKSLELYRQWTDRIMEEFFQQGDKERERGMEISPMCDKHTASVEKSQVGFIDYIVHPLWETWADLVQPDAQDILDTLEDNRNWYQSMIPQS

[3] = system: histamine-induced bronchoconstriction in guinea pigs; assay: Histamine-induced bronchoconstriction reaction in guinea pigs; type: in vivo, guinea pig; details: Cavia porcellus, iv, 0.5 min, compound 0.3 mg/kg i.v., measured 30 seconds after administration, histamine 12.5 μg/kg i.v., read-out: Inhibition rate (histamine-induced bronchoconstriction)
Method: Guinea pigs were anesthetized with pentobarbital (30 mg/kg, i.p.). A cannula for intravenous administration, a cannula for collecting blood and measuring blood pressure, and a tracheal cannula were inserted into the left external jugular vein, right internal carotid artery, and trachea, respectively. The guinea pigs were maintained on artificial respiration under conditions of 60 times/min and 10 mL/kg/stroke. The overflowing air from the side branch of the tracheal cannula was measured by a bronchospasm transducer (Ugo-Basile) and recorded on a computer via Power Lab (ADInstruments Japan). The guinea pigs were immobilized with gallamine (10 mg/kg, i.v.), and histamine (12.5 μg/kg, i.v.) was administered at 10-minute intervals. After the histamine-induced bronchoconstriction became stable, the compound (0.3 mg/kg, i.v.) was administered. The histamine-induced bronchoconstriction reaction was measured 30 seconds after the compound administration to examine the bronchoconstriction inhibitory activity of the compound. The bronchoconstriction was recorded as the airflow value, and the results were represented by the ratio of the maximum value of the histamine-induced airflow 30 seconds after administration to the maximum value of the airflow before administration. Also, the test compounds dissolved in DMSO were used. Further, the indications were as follows: inhibition rate≧90% (+++), 90%>inhibition rate≧80% (++), and 80%>inhibition rate≧60% (+).

| pIC50 [1] | pIC50 [2] | Structure (SMILES) | inhibition in vivo at 0.3 mg/kg [3] |
| --- | --- | --- | --- |
| 6.00 to 7.00 | 6.00 to 7.00 | CCc1ccc2c(C3=NN(CCCCOc4ccc(C5=NNC(=O)CC5)cc4OC)C(=O)C3(C)C)ccc(OC)c2n1 [Example 238] | 60 to 80% |
| > 8.00 | > 8.00 | COc1ccc(C2=NN(CCCCOc3ccc(C4=NNC(=O)CC4)c(F)c3F)C(=O)C2(C)C)c2sc(C(F)(F)F)nc12 [Example 229, 2-[4-[2,3-Difluoro-4-(6-oxo-1,4,5,6-tetrahydropyridazin-3-yl)phenoxy]butyl]-5-(4-methoxy-2-trifluoromethylbenzo[d]thiazol-7-yl)-4,4-dimethyl-2,4-dihydro-pyrazol-3-one] | ≥ 90% |
| > 8.00 | > 8.00 | COc1ccc(C2=NN(CCCCOc3ccc(C4=NNC(=O)CC4)c(F)c3F)C(=O)C2(C)C)c2[nH]c(C(F)(F)F)nc12 [Example 219, 2-[4-[2,3-Difluoro-4-(6-oxo-1,4,5,6-tetrahydropyridazin-3-yl)phenoxy]butyl]-5-(4-methoxy-2-trifluoromethyl-1H-benzo[d]imidazol-7-yl)-4,4-dimethyl-2,4-dihydro-pyrazol-3-one] | ≥ 90% |
| > 8.00 | > 8.00 | COc1ccc(C2=NN(CCCCOc3ccc(C4=NNC(=O)CC4C)c(F)c3F)C(=O)C2(C)C)n2cc(C(F)(F)F)nc12 (stereo not drawn) [Example 234, 2-[4-[2,3-Difluoro-4-(4-methyl-6-oxo-1,4,5,6-tetrahydropyridazin-3-yl)phenoxy]butyl]-5-(8-methoxy-2-trifluoromethylimidazo[1,2-a]pyridin-5-yl)-4,4-dimethyl-2,4-dihydro-pyrazol-3-one] | 80 to 90% |
| > 8.00 | 6.00 to 7.00 | CCc1ccc2c(C3=NN(CCCOc4ccc(C5=NNC(=O)CC5C)c(F)c4F)C(=O)C3(C)C)ccc(OC)c2n1 (stereo not drawn) [Example 241, 5-(2-Ethyl-8-methoxyquinolin-5-yl)-2-[4-[2,3-difluoro-4-(4-methyl-6-oxo-1,4,5,6-tetrahydropyridazin-3-yl)phenoxy]propyl]-4,4-dimethyl-2,4-dihydro-pyrazol-3-one] | ≥ 90% |
| 6.00 to 7.00 | 7.00 to 8.00 | CCc1ccc2c(C3=NN(CCCCOc4ccc(C5=NNC(=O)CC5)cc4)C(=O)C3(C)C)ccc(OC)c2n1 [Example 200, 5-(2-Ethyl-8-methoxyquinolin-5-yl)-2-[4-[4-(6-oxo-1,4,5,6-tetrahydropyridazin-3-yl)phenoxy]butyl]-4,4-dimethyl-2,4-dihydro-pyrazol-3-one] | ≥ 90% |
| 7.00 to 8.00 | > 8.00 | COc1ccc(C2=NN(CCCCOc3ccc(C4=NNC(=O)C4(C)C)c(F)c3F)C(=O)C2(C)C)c2[nH]c(C(F)(F)F)nc12 [Example 220, 2-[4-[2,3-Difluoro-4-(4,4-dimethyl-5-oxo-4,5-dihydro-1H-pyrazol-3-yl)phenoxy]butyl]-5-(4-methoxy-2-trifluoromethyl-1H-benzo[d]imidazol-7-yl)-4,4-dimethyl-2,4-dihydro-pyrazol-3-one] | ≥ 90% |
| > 8.00 | 7.00 to 8.00 | COc1ccc(C2=NN(CCCCOc3ccc(C4=NNC(=O)CC4C)cc3F)C(=O)C2(C)C)c2cccnc12 (stereo not drawn) [Example 215, 2-[4-[2-Fluoro-4-(4-methyl-6-oxo-1,4,5,6-tetrahydropyridazin-3-yl)phenoxy]butyl]-5-(8-methoxyquinolin-5-yl)-4,4-dimethyl-2,4-dihydro-pyrazol-3-one] | ≥ 90% |
| 7.00 to 8.00 | 7.00 to 8.00 | COc1ccc(C2=NN(CCCCOc3ccc(C4=NNC(=O)CC4C)cc3)C(=O)C2(C)C)c2ccc(C)nc12 (stereo not drawn) [Example 193, 5-(8-Methoxy-2-methylquinolin-5-yl)-2-[4-[4-(4-methyl-6-oxo-1,4,5,6-tetrahydropyridazin-3-yl)phenoxy]butyl]-4,4-dimethyl-4,4-dihydro-pyrazol-3-one] | ≥ 90% |
| > 8.00 | 7.00 to 8.00 | CCc1ccc2c(C3=NN(CCCCOc4ccc(C5=NNC(=O)CC5)c(F)c4F)C(=O)C3(C)C)ccc(OC)c2n1 [Example 198, 5-(2-Ethyl-8-methoxyquinolin-5-yl)-2-[4-[2,3-difluoro-4-(6-oxo-1,4,5,6-tetrahydropyridazin-3-yl)phenoxy]butyl]-4,4-dimethyl-2,4-dihydro-pyrazol-3-one] | ≥ 90% |
| > 8.00 | 7.00 to 8.00 | CCc1ccc2c(C3=NN(CCCCOc4ccc(C5=NNC(=O)C5(C)C)c(F)c4F)C(=O)C3(C)C)ccc(OC)c2n1 [Example 203, 5-(2-Ethyl-8-methoxyquinolin-5-yl)-2-[4-[2,3-difluoro-4-(4,4-dimethyl-5-oxo-4,5-dihydro-1H-pyrazol-3-yl)phenoxy]butyl]-4,4-dimethyl-2,4-dihydro-pyrazol-3-one] | ≥ 90% |
| 7.00 to 8.00 | > 8.00 | CCc1ccc2c(C3=NN(CCCCOc4ccc(C5=NNC(=O)CC5)cc4F)C(=O)C3(C)C)ccc(OC)c2n1 [Example 199, 5-(2-Ethyl-8-methoxyquinolin-5-yl)-2-[4-[2-fluoro-4-(6-oxo-1,4,5,6-tetrahydropyridazin-3-yl)phenoxy]butyl]-4,4-dimethyl-2,4-dihydro-pyrazol-3-one] | ≥ 90% |
| 7.00 to 8.00 | 7.00 to 8.00 | CCc1ccc2c(C3=NN(CCCCOc4ccc(C5=NNC(=O)CC5C)cc4)C(=O)C3(C)C)ccc(OC)c2n1 (stereo not drawn) [Example 194, 5-(2-Ethyl-8-methoxyquinolin-5-yl)-2-[4-[4-(4-methyl-6-oxo-1,4,5,6-tetrahydropyridazin-3-yl)phenoxy]butyl]-4,4-dimethyl-2,4-dihydro-pyrazol-3-one] | ≥ 90% |
| 7.00 to 8.00 | 7.00 to 8.00 | CCc1ccc2c(C3=NN(CCCCOc4ccc(C5=NNC(=O)C5(C)C)cc4F)C(=O)C3(C)C)ccc(OC)c2n1 [Example 202, 5-(2-Ethyl-8-methoxyquinolin-5-yl)-2-[4-[2-fluoro-4-(4,4-dimethyl-5-oxo-4,5-dihydro-1H-pyrazol-3-yl)phenoxy]butyl]-4,4-dimethyl-2,4-dihydro-pyrazol-3-one] | 60 to 80% |
| 7.00 to 8.00 | > 8.00 | COc1ccc(C2=NN(CCCCOc3ccc(C4=NNC(=O)C4(C)C)c(F)c3F)C(=O)C2(C)C)n2cc(C(F)(F)F)nc12 [Example 236, 2-[4-[2,3-Difluoro-4-(4,4-dimethyl-5-oxo-4,5-dihydro-1H-pyrazol-3-yl)phenoxy]butyl]-5-(8-methoxy-2-trifluoromethylimidazo[1,2-a]pyridin-5-yl)-4,4-dimethyl-2,4-dihydro-pyrazol-3-one] | 60 to 80% |
| > 8.00 | 7.00 to 8.00 | COc1ccc(C2=NN(CCCCOc3ccc(C4=NNC(=O)C4(C)C)c(F)c3F)C(=O)C2(C)C)c2cccnc12 [Example 213, 2-[4-[2,3-Difluoro-4-(4,4-dimethyl-5-oxo-4,5-dihydro-1H-pyrazol-3-yl)phenoxy]butyl]-5-(8-methoxyquinolin-5-yl)-4,4-dimethyl-2,4-dihydro-pyrazol-3-one] | ≥ 90% |
